We go through 32 molecules from patent US12377083B2 (WUHAN LL SCIENCE AND TECHNOLOGY DEVELOPMENT CO., LTD., priority 2019, dated 2025).

pIC50: −log10 of the molar value. Read-outs that look alike come from different tables or passages of the source. Where only a bound is given, the exact number is not on record here.

The pIC50 is −log10 of the IC50, conventionally taken in molar units. In general, IC50 refers to the concentration needed to halve the response being measured.

The test system of assay [1] is A2058 (human melanoma cells). The assay can be described thus: A2058 cell scratch (migration) assay with LPA. As to conditions: 10 μM LPA, scratch area at 24 h. In kind it is cell-based. The protocol:
The activity of the compounds disclosed herein at the cell level in vitro is evaluated by A2058 (human melanoma cells, Beina Bio, BNCC341099) cell scratch assay. The inhibitory activity of the compounds against LPAR1 can be reflected by inhibition of cell scratch healing.
After the cell confluence reached 80%, the cell culture plate was taken out and the original medium was discarded. Serum-free medium was then added, and the cells were starved overnight in an incubator (37° C., 5% CO2). The cell culture plate was then taken out, and cell scratches were made along the diameter of the wells using a 200 μL pipette tip. The cell culture plate was then added with 500 μL of serum-free medium and then shaken gently to wash away the residual cells on the scratched surface, and this was repeated twice. The medium was discarded and 500 μL of 1% FBS medium containing the compound was then added, and the mixture was incubated at 37° C. for 30 min. […] Olympus CKX53 was used to observe the scratches, and MShot image analysis system was used to take pictures and measure the scratch area at 0 h. The plate was incubated in the incubator under the conditions of 37° C. and 5% CO2. 24 h later, the scratches were observed again with Olympus CKX53, and MShot image analysis system was used to take pictures and measure the scratch area at 24 h. Cell migration inhibition rate was calculated according to the following formula: […]

Assay [2] concerns the target hLPAR1 (human lysophosphatidic acid receptor 1) (Homo sapiens, UniProt Q92633). The assay can be described thus: FLIPR assay of intracellular calcium increase induced by activation of hLPAR1 expressed in CHO-K1 cells. As to conditions: CHO-K1 cells expressing hLPAR1, agonist oleoyl-L-α-lysophosphatidic acid 1 μM; for pIC50: read-out: LPAR1 IC50; for IC50: LPAR1 IC50 (μM). In kind it is cell-based. On the procedure:
The antagonist property of the compounds disclosed herein was determined using the FLIPR (fluorescence imaging plate reader) method, wherein the compounds are inhibitors for the intracellular calcium increase induced by activation of hLPAR1 (human lysophosphatidic acid receptor 1, accession No. NM_001401.4) expressed in CHO-K1 cells (Chinese hamster ovary cells K1, ATCC).
Cells at 250,000 cells/mL were seeded into a 96-well plate (25,000 cells/well) 18-24 h prior to the FLIPR experiment and then incubated overnight in a cell incubator. […] Each well was added with 75 μL of […] Fluo-4 AM fluorescent dye (Thermo, F14202) and then the cells were subjected to dye-loading incubation at 37° C. for 1.0 h. The 96-well plate was then washed once with buffer, added with a buffer containing a test compound or a vehicle at 50 μL per well and then incubated for 30 min at room temperature. […] An agonist (oleoyl-L-α-lysophosphatidic acid sodium salt (Sigma, L7260)) at a final concentration of 1 μM or a vehicle (ultrapure water) was then added at 50 μL/well, fluorescence values were measured for 2 min at 1-second intervals, and finally the output fluorescence counts were analyzed.

hLPAR1 (human lysophosphatidic acid receptor 1), sequence (Q92633 whole entry): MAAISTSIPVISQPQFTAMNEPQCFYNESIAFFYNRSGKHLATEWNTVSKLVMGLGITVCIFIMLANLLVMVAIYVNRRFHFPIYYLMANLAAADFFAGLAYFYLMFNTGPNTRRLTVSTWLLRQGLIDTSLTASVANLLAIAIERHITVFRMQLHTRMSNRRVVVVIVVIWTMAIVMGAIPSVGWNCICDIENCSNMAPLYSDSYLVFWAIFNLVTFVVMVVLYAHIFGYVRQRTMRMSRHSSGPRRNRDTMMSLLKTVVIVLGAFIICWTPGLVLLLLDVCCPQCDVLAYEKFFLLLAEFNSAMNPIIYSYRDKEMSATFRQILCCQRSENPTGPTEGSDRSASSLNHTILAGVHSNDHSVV

Consider `CN(C(=O)OCc1c(-c2ccc(O[C@H]3CCC[C@H](C(=O)O)C3)c(N)n2)cnn1C)C1CCC1` (racemic) [Compound 113, (+/−)-(1S,3S)-3-((2-amino-6-(5-(((cyclobutyl(methyl)carbamoyl)oxy)methyl)-1-methyl-1H-pyrazol-4-yl)pyridin-3-yl)oxy)cyclohexane-1-carboxylic Acid], for which the “Cell migration inhibition rate (%)” value in assay [1] is “C (C: 0-30%)”. Further, the negative logarithm of the IC50 (pIC50) in assay [2] was 5.00 to 6.52.

As to `CN(C(=O)OCc1c(-c2cnc(O[C@H]3CCC[C@H](C(=O)O)C3)c(F)n2)cnn1C)C1CCCC1` (racemic) [Compound 103, (+/−)-(1S,3S)-3-((5-(5-(((cyclopentyl(methyl)carbamoyl)oxy)methyl)-1-methyl-1H-pyrazol-4-yl)-3-fluoropyrazin-2-yl)oxy)cyclohexane-1-carboxylic Acid], the pIC50 in assay [2] is above 7.30.

In the case of `CN(C(=O)OCc1c(-c2ccc(C3CCC[C@H](C(=O)O)C3)cc2)cnn1C)C1CCCC1` (mixture of isomers) [Compound 73], the negative logarithm of the IC50 (pIC50) in assay [2] is 5.00 to 6.52.

Take `Cc1nc(-c2cnn(C)c2COC(=O)N2CC3CCC(C2)O3)ccc1O[C@H]1CCC[C@H](C(=O)O)C1` (racemic) [Compound 65, (+/−)-(1R,3R)-3-((6-(5-(((8-oxa-3-azabicyclo[3.2.1]octane-3-carbonyl)oxy)methyl)-1-methyl-1H-pyrazol-4-yl)-2-methylpyridin-3-yl)oxy)cyclohexane-1-carboxylic Acid]: the “Cell migration inhibition rate (%)” value in assay [1] was “C (C: 0-30%)”. Besides, in assay [2], the pIC50 was 5.00 to 6.52.

`CN(Cc1ccccc1)C(=O)OCc1oncc1-c1ccc(O[C@H]2CCC[C@H](C(=O)O)C2)cc1` (racemic) [Compound 68]: in assay [2], the pIC50 is 5.00 to 6.52.

In the case of `CN(C(=O)OCc1c(-c2ccc(O[C@H]3CCC[C@H](C(=O)O)C3)c(CO)n2)cnn1C)C1CCC1` (racemic) [Compound 116, (+/−)-(1S,3S)-3-((6-(5-(((cyclobutyl(methyl)carbamoyl)oxy)methyl)-1-methyl-1H-pyrazol-4-yl)-2-(hydroxymethyl)pyridin-3-yl)oxy)cyclohexane-1-carboxylic Acid], in assay [1], the “Cell migration inhibition rate (%)” value is on record as “B (B: 30-50%)”. In addition, in assay [2], the pIC50 is 5.00 to 6.52.

Regarding `Cc1onc(-c2cnc(O[C@H]3CCC[C@H](C(=O)O)C3)c(F)n2)c1COC(=O)N(C)C1CCCC1` (racemic) [Compound 101], the pIC50 in assay [2] is above 7.30.

Consider `Cc1onc(-c2ccc(O[C@H]3CCC[C@H](C(=O)O)C3)c(C(F)(F)F)n2)c1COC(=O)N(C)C1CCCC1` [Compound 80], for which, in assay [2], the negative-log IC50 (pIC50) is above 7.30.

Take `Cc1nc(-c2onc(C)c2COC(=O)N(C)C2CCCC2)cnc1O[C@H]1CCC[C@H](C(=O)O)C1` (racemic) [Compound 90]: the pIC50 in assay [2] is above 7.30.

In the case of `CN(C(=O)OCc1c(-c2cnc(O[C@H]3CCC[C@H](C(=O)O)C3)c(C#N)n2)cnn1C)C1CCCC1` (racemic) [Compound 104, (+/−)-(1S,3S)-3-((3-cyano-5-(5-(((cyclopentyl(methyl)carbamoyl)oxy)methyl)-1-methyl-1H-pyrazol-4-yl)pyrazin-2-yl)oxy)cyclohexane-1-carboxylic Acid], the “Cell migration inhibition rate (%)” value in assay [1] is reported as “C (C: 0-30%)”. Besides, in assay [2], the negative-log IC50 (pIC50) is above 7.30.

As to `Cc1snc(-c2ccc(O[C@H]3CCC[C@H](C(=O)O)C3)c(C(F)(F)F)n2)c1COC(=O)N(C)C1CCCC1` [Compound 82], the pIC50 in assay [2] is above 7.30.

As to `Cc1nc(-c2onc(C)c2COC(=O)N(C)C2CCCC2)ncc1O[C@H]1CCC[C@H](C(=O)O)C1` (racemic) [Compound 91, (+/−)-(1S,3S)-3-((2-(4-(((cyclopentyl(methyl)carbamoyl)oxy)methyl)-3-methylisoxazol-5-yl)-4-methylpyrimidin-5-yl)ox)cyclohexane-1-carboxylic Acid], in assay [1], the “Cell migration inhibition rate (%)” value is on record as “C (C: 0-30%)”. Moreover, the negative logarithm of the IC50 (pIC50) in assay [2] was above 7.30.

`Cc1nsc(-c2ccc(O[C@H]3CCC[C@H](C(=O)O)C3)cn2)c1COC(=O)N(C)C1CCCC1` (racemic) [Compound 83]: the pIC50 in assay [2] is 6.52 to 7.30.

For the molecule `Cc1nc(-c2c(N)nn(C)c2COC(=O)N(C)C2CCCC2)ccc1O[C@H]1CCC[C@H](C(=O)O)C1` (racemic) [Compound 87], the negative-log IC50 (pIC50) in assay [2] was 6.52 to 7.30.

For the molecule `CN(CC1CCCC1)C(=O)OCc1c(-c2ccc(O[C@H]3CCC[C@H](C(=O)O)C3)c(C#N)n2)cnn1C` [Compound 78], the negative-log IC50 (pIC50) in assay [2] is 6.52 to 7.30.

With `CN(CC1CCCC1)C(=O)OCc1c(-c2ccc(O[C@H]3CCC[C@H](C(=O)O)C3)c(F)n2)cnn1C` (racemic) [Compound 77], the negative-log IC50 (pIC50) in assay [2] was above 7.30.

With `Cc1nsc(-c2ccc(O[C@H]3CCC[C@H](C(=O)O)C3)c(C(F)(F)F)n2)c1COC(=O)N(C)C1CCCC1` (racemic) [Compound 84], the negative logarithm of the IC50 (pIC50) in assay [2] is above 7.30.

Regarding `Cc1noc(-c2ccc(O[C@H]3CCC[C@H](C(=O)O)C3)c(F)c2)c1COC(=O)N(C)C1CCCC1` (racemic) [Compound 86], in assay [2], the pIC50 is above 7.30.

As for `CN(C(=O)OCc1cnccc1-c1ccc(O[C@H]2CCC[C@H](C(=O)O)C2)cc1)C1CCCC1` [Compound 75], the IC50 in assay [2] lay in the range of 0.3 to 10 µM.

As for `Cc1onc(-c2ccc(O[C@H]3CCC[C@H](C(=O)O)C3)cn2)c1COC(=O)N(C)C1CCCC1` (racemic) [Compound 79], in assay [2], the negative logarithm of the IC50 (pIC50) is above 7.30.

Consider `Cc1snc(-c2ccc(O[C@H]3CCC[C@H](C(=O)O)C3)cn2)c1COC(=O)N(C)C1CCCC1` (racemic) [Compound 81], for which the negative-log IC50 (pIC50) in assay [2] was 6.52 to 7.30.

For the molecule `Cc1nc(-c2c(COC(=O)N(C)C3CCCC3)n(C)[nH]c2=O)ccc1O[C@H]1CCC[C@H](C(=O)O)C1` (racemic) [Compound 99], the negative-log IC50 (pIC50) in assay [2] is 5.00 to 6.52.

As to `Cc1nc(-c2c(C(F)(F)F)nn(C)c2COC(=O)N(C)C2CCCC2)ccc1O[C@H]1CCC[C@H](C(=O)O)C1` (racemic) [Compound 85], the pIC50 in assay [2] is 6.52 to 7.30.

Turning to `CN(C(=O)OCc1cncnc1-c1ccc(O[C@H]2CCC[C@H](C(=O)O)C2)cc1)C1CCCC1` (racemic) [Compound 76], the negative logarithm of the IC50 (pIC50) in assay [2] is 5.00 to 6.52.

As for `Cc1noc(-c2ccc(O[C@H]3CCC[C@H](C(=O)O)C3)cc2)c1OC(=O)N(C)C1CCCC1` (racemic) [Compound 69], the IC50 in assay [2] lay in the range of 0.3 to 10 µM.

On to `CN(C(=O)OCc1c(-c2ccc(O[C@H]3CCC[C@H](C(=O)O)C3)c(N3CC(O)C3)n2)cnn1C)C1CCC1` (racemic) [Compound 107], for which the pIC50 in assay [2] was 5.00 to 6.52.

As to `Cc1ccn(-c2ccc(O[C@H]3CCC[C@H](C(=O)O)C3)cc2)c1N(C)C(=O)OC1CCCC1` (racemic) [Compound 71], in assay [2], the negative logarithm of the IC50 (pIC50) was 5.00 to 6.52.

In the case of `Cc1cnn(-c2ccc(O[C@H]3CCC[C@H](C(=O)O)C3)cc2)c1N(C)C(=O)OC1CCCC1` (racemic) [Compound 70], the negative-log IC50 (pIC50) in assay [2] was 5.00 to 6.52.

`CN(C(=O)OCc1c(-c2ccc(O[C@H]3CCC[C@H](C(=O)O)C3)c(OCCO)n2)cnn1C)C1CCC1` (racemic) [Compound 111]: the pIC50 in assay [2] was 5.00 to 6.52.

For `CN(C(=O)OCc1cnncc1-c1ccc(O[C@H]2CCC[C@H](C(=O)O)C2)cc1)C1CCCC1` (racemic) [Compound 74], the pIC50 in assay [2] is 5.00 to 6.52.

As to `Cc1nc(-c2cnn(C)c2COC(=O)N2CC3CCC2CO3)ccc1O[C@H]1CCC[C@H](C(=O)O)C1` (mixture of isomers) [Compound 96], in assay [2], the pIC50 is 5.00 to 6.52.

On to `CN(C(=O)OCc1oncc1-c1ccc(O[C@H]2CCC[C@H](C(=O)O)C2)cc1)C1CCCC1` (racemic) [Compound 72], for which the negative logarithm of the IC50 (pIC50) in assay [2] is 5.00 to 6.52.
